Results published in patent US9670173B2, “Dicarboxylic acid compound” (DAIICHI SANKYO COMPANY, LIMITED, priority 2013, dated 2017).

Tested on: male SD rats
Experiment: Rat 33P phosphate oral challenge test (intestinal phosphate absorption suppression test)
Format: in vivo
Conditions: fasted, 30 mg/kg forcible oral administration, 33P phosphate solution given 30 min later, serum radioactivity AUC0-60min versus control group
Procedure: (Test Example) Rat ^33P Phosphate Oral Challenge Test (Intestinal Phosphate Absorption Suppression Test)
Using male SD rats (5-7 week old) that had been fasted on the previous day, the compound described in Examples was suspended or dissolved in a solvent such as 0.5% methyl cellulose (3-6 mg/mL), and the thus obtained solution was administered to each rat at a dose of 30 mg/kg by a forcible oral administration. On the other hand, regarding a control group, the solvent was administered to each rat at a dose of 5 mL/kg. Thirty minutes after the administration, a ^33P phosphate solution (8.3 mM NaH2PO4, 0.35 MBq/mL) was administered to the rats at a dose of 7.2 mL/kg by a forcible oral administration. Then, 15, 30, 60, and 120 minutes after the administration, blood was collected from the jugular vein of each rat under anesthesia with isoflurane. The radioactivity in 50 μL of serum was measured using a liquid scintillation counter, and the AUC0-60min was then calculated from the radioactivity value. The obtained value was defined as an amount of phosphate absorbed. The phosphate absorption-inhibiting activity of the compound was calculated according to the following expression. Phosphate absorption-inhibiting activity (%)=[[…]the amount of phosphate absorbed of the control group]×100

| SMILES | Phosphorus absorption-inhibiting activity (%) |
| --- | --- |
| CCN([C@H]1CC[C@H](C(=O)O)CC1)S(=O)(=O)c1cccc(C(=O)Nc2ccc(Br)cc2C(=O)Nc2ccc(CCc3ccc(C(=O)O)cc3)cc2)c1 [Example 4, Dipotassium 4-[2-(4-{[5-bromo-2-({3-[(trans-4-carboxylatocyclohexyl)(ethyl)sulfamoyl]benzoyl}amino)benzoyl]amino}phenyl)ethyl]benzoate] | 42% |
| CCN([C@H]1CC[C@H](C(=O)[O-])CC1)S(=O)(=O)c1cccc(C(=O)Nc2ccc(N3CCCC3)cc2C(=O)Nc2ccc(CCc3ccc(C(=O)[O-])cc3)cc2)c1.[K+].[K+] [Example 10, Dipotassium 4-[2-(4-{[2-({3-[(trans-4-carboxylatocyclohexyl)(ethyl)sulfamoyl]benzoyl}amino)-5-(pyrrolidin-1-yl)benzoyl]amino}phenyl)ethyl]benzoate] | 53% |
| CCN([C@H]1CC[C@H](C(=O)O)CC1)S(=O)(=O)c1cccc(C(=O)Nc2ccc(N3CCCCC3)cc2C(=O)Nc2ccc(CCc3ccc(C(=O)O)cc3)cc2)c1 [Example 12, Dipotassium 4-[2-(4-{[2-({3-[(trans-4-carboxylatocyclohexyl)(ethyl)sulfamoyl]benzoyl}amino)-5-(piperidin-1-yl)benzoyl]amino}phenyl)ethyl]benzoate] | 79% |
| CCN(CC)c1ccc(NC(=O)c2cccc(S(=O)(=O)N(CC)[C@H]3CC[C@H](C(=O)O)CC3)c2)c(C(=O)Nc2ccc(CCc3ccc(C(=O)O)cc3)cc2)c1 [Example 14, Dipotassium 4-[2-(4-{[2-({3-[(trans-4-carboxylatocyclohexyl)(ethyl)sulfamoyl]benzoyl}amino)-5-(diethylamino)benzoyl]amino}phenyl)ethyl]benzoate] | 76% |
| CCN([C@H]1CC[C@H](C(=O)[O-])CC1)S(=O)(=O)c1cccc(C(=O)Nc2ccc(OCC3CC3)cc2C(=O)Nc2ccc(CCc3ccc(C(=O)[O-])cc3)cc2)c1.[K+].[K+] [Example 15, Dipotassium 4-[2-(4-{[2-({3-[(trans-4-carboxylatocyclohexyl)(ethyl)sulfamoyl]benzoyl}amino)-5-(cyclopropylmethoxy)benzoyl]amino}phenyl)ethyl]benzoate] | 82% |
| CCN([C@H]1CC[C@@H](C(=O)O)CC1)S(=O)(=O)c1cccc(C(=O)Nc2ccc(N3CCCCC3)cc2C(=O)Nc2ccc(CCc3ccc(C(=O)O)cc3)cc2)c1 [Example 26, Dipotassium 4-[2-(4-{[2-({3-[(cis-4-carboxylatocyclohexyl)(ethyl)sulfamoyl]benzoyl}amino)-5-(piperidin-1-yl)benzoyl]amino}phenyl)ethyl]benzoate] | 60% |
| O=C([O-])c1ccc(CCc2ccc(NC(=O)c3cc(N4CCCCC4)ccc3NC(=O)c3cccc(S(=O)(=O)N(C4CC4)[C@H]4CC[C@H](C(=O)[O-])CC4)c3)cc2)cc1.[K+].[K+] [Example 27, Dipotassium 4-[2-(4-{[2-({3-[(trans-4-carboxylatocyclohexyl)(cyclopropyl)sulfamoyl]benzoyl}amino)-5-(piperidin-1-yl)benzoyl]amino}phenyl)ethyl]benzoate] | 57% |
| CCN([C@H]1CC[C@H](C(=O)[O-])CC1)S(=O)(=O)c1cccc(C(=O)Nc2ccc(N3CCCCC3)cc2C(=O)Nc2ccc(CCc3ccc(C(=O)[O-])cc3)cc2)c1.[Na+].[Na+] [Example 28, Disodium 4-[2-(4-{[2-({3-[(trans-4-carboxylatocyclohexyl)(ethyl)sulfamoyl]benzoyl}amino)-5-(piperidin-1-yl)benzoyl]amino}phenyl)ethyl]benzoate] | 60% |
| CCN(CC)c1ccc(NC(=O)c2cccc(S(=O)(=O)N(CC)[C@H]3CC[C@H](C(=O)[O-])CC3)c2)c(C(=O)Nc2ccc(CCc3ccc(C(=O)[O-])cc3)cc2)c1.[Na+].[Na+] [Example 29, Disodium 4-[2-(4-{[2-({3-[(trans-4-carboxylatocyclohexyl)(ethyl)sulfamoyl]benzoyl}amino)-5-(diethylamino)benzoyl]amino}phenyl)ethyl]benzoate] | 72% |
| CCN([C@H]1CC[C@H](C(=O)O)CC1)S(=O)(=O)c1cccc(C(=O)Nc2ccc(OCC3CC3)cc2C(=O)Nc2ccc(CCc3ccc(C(=O)O)cc3)cc2)c1 [Example 30, Disodium 4-[2-(4-{[2-({3-[(trans-4-carboxylatocyclohexyl)(ethyl)sulfamoyl]benzoyl}amino)-5-(cyclopropylmethoxy)benzoyl]amino}phenyl)ethyl]benzoate] | 69% |
